According to article PMC10272563, “Novel gold(III)-dithiocarbamate complex targeting bacterial thioredoxin reductase: antimicrobial activity, synergy, toxicity, and mechanistic insights” (Frontiers in Microbiology, 2023):
Where two headings read alike, the source gives them in different places.

What was measured:
[1] = molecular target: T1, E. coli TrxR (thioredoxin reductase) (Escherichia coli, UniProt P0A9P4); design: gene trxB
[2] = molecular target: T1, E. coli TrxR (thioredoxin reductase); test: Trx-coupled DTNB reduction assay, purified recombinant enzyme; activity recovered after desalting; format: biochemical; design: gene trxB; GenBank PSY25180.1, residues 1–321, His6-SUMO tag removed

T1 sequence (P0A9P4 whole entry, the tested form may be a part): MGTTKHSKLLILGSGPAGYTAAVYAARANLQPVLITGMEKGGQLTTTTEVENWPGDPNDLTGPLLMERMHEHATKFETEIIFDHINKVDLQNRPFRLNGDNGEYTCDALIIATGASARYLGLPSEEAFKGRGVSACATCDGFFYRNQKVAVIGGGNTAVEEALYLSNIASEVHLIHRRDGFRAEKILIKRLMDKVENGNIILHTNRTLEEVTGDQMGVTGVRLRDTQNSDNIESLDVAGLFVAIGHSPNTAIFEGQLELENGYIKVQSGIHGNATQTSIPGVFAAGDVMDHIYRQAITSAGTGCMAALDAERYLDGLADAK
T1 sequence (P0AA25 whole entry, further chain, the tested form may be a part): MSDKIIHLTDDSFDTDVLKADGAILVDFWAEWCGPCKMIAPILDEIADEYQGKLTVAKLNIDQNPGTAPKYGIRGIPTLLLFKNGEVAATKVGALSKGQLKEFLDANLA

Compound	IC50 [1] [nM]	IC50 [2] [nM]
CC[P](CC)(CC)=[Au][S][C@@H]1O[C@H](COC(C)=O)[C@@H](OC(C)=O)[C@H](OC(C)=O)[C@H]1OC(C)=O [auranofin]	1110	
[Au(dppta)Cl2] [compound 1]		1330
[Au(dppta)(mrdtc)][PF6] [compound 2]		1920
